Test results: patent publication US12600732B2, “Bifunctional compounds for degrading BTK via ubiquitin proteosome pathway” (NURIX THERAPEUTICS, INC., priority 2019, dated 2026)
“And” between values parts separate entries of the source, which are not always exact repeats. Equal entries are not always repeated. Blank lines part the entries; values can stand above or below the compound they belong to.

Assays:
BTK [1] = target: BTK (Homo sapiens, UniProt Q06187); assay: BTK remaining in TMD8 WT mouse xenograft study; type: in vivo; design: from tissue; host or cells: TMD8 xenograft in CB.17 SCID mice
From the text: (§1) Efficacy in Mouse Xenograft Models
(§2) This example examines the activity of various BTK CTMs in relevant disease models, including the WT and C481S TMD8 model, which models B cell malignancies with/without inhibitor-driven BTK mutations at C481.

1:1 TMD8 WT:TMD8 C481S = assay: Mouse xenograft efficacy study, 1:1 TMD8 WT:TMD8 C481S model; type: in vivo; settings: PO, 30 mg/kg, BID, 21 days of dosing
From the text: as §1, §2

BTK C481S = BTK C481S (Homo sapiens, UniProt Q06187, C481S); assay: BTK remaining in TMD8 C481S mouse xenograft study; type: in vivo; design: from tissue; host or cells: TMD8 BTK-C481S xenograft in CB.17 SCID mice; settings: PO, 23 days of dosing
From the text: as §1, §2

TMD8 tumor cells = assay: TMD8 xenograft efficacy study (wild-type BTK); type: in vivo, mouse; settings: TMD8 WT
Protocol: […] Tumor growth inhibition (% TGI) were calculated on the final day of measurement using the equation [1−(T−T0/C−T0)]×100, where T and C represent the mean size of tumors in the treated (T) and control (C) groups, and T0 refers to the tumor size at randomization.
as §2

BTK [2] = target: T1, BTK (Rattus norvegicus, UniProt Q5S255); assay: PD data from rat (BTK degradation); type: in vivo; settings: blood
T1 construct: from tissue
From the text: In this example, compounds were profiled for activity in non-mouse species.

[3] = PO (water bottle), 15 mg/kg, QD (water bottle), 21 days of dosing
[4] = PO (water bottle), 35 mg/kg, QD (water bottle), 23 days of dosing

BTK Remaining (% relative to vehicle) (BTK [1]; [3]): 7% | BTK Remaining (% relative to vehicle) (BTK [1]; [4]): 18% | BTK Remaining (% relative to vehicle) (BTK [1]; PO, 30 mg/kg, QD, 21 days of dosing): 32% and 20% | BTK Remaining (% relative to vehicle) (BTK C481S; 5 mg/kg, BID): 44% | BTK Remaining (% relative to vehicle) (BTK C481S; 10 mg/kg, QD): 38% | BTK Remaining (% relative to vehicle) (BTK C481S; 15 mg/kg, BID): 25% | BTK Remaining (% relative to vehicle) (BTK C481S; 30 mg/kg, BID): 39% and 35% | BTK Remaining (% relative to vehicle) (BTK C481S; 30 mg/kg, QD): 51% and 42% | BTK Remaining (% relative to vehicle) (BTK C481S; 60 mg/kg, QD): 36%
Structure (SMILES): CN1CCN([C@@H]2CCCN(c3cnc(C(N)=O)c(Nc4ccc(C5CCN(C[C@H]6CCN(c7ccc8c(c7)C(=O)N(C7CCC(=O)NC7=O)C8=O)C6)CC5)cc4)n3)C2)C1=O (stereo partly drawn) [Compound 44]
Tumor Growth Inhibition (relative to vehicle) (1:1 TMD8 WT:TMD8 C481S): 54% | Tumor Growth Inhibition (relative to vehicle) (TMD8 tumor cells; [3]): 29% | Tumor Growth Inhibition (relative to vehicle) (TMD8 tumor cells; [4]): 89% | Tumor Growth Inhibition (relative to vehicle) (TMD8 tumor cells; PO, 7.5 mg/kg, BID, 21 days of dosing): 100% | Tumor Growth Inhibition (relative to vehicle) (TMD8 tumor cells; PO, 15 mg/kg, BID, 21 days of dosing): 100% | Tumor Growth Inhibition (relative to vehicle) (TMD8 tumor cells; PO, 30 mg/kg, BID, 23 days of dosing): 99% | Tumor Growth Inhibition (relative to vehicle) (TMD8 tumor cells; PO, 30 mg/kg, QD, 23 days of dosing): 83% | Tumor Growth Inhibition (relative to vehicle) (TMD8 tumor cells; PO, 90 mg/kg, BID, 23 days of dosing): 100% | Tumor Growth Inhibition (relative to vehicle) (TMD8 tumor cells; PO, 90 mg/kg, QD, 23 days of dosing): 93%

% BTK Remaining (BTK [2]; 1 mg/kg IV, 4 h): <1% | % BTK Remaining (BTK [2]; 1 mg/kg IV, 24 h): <1% | % BTK Remaining (BTK [2]; 10 mg/kg PO, 4 h): <1% | % BTK Remaining (BTK [2]; 10 mg/kg PO, 24 h): <1% | % BTK Remaining (BTK [2]; 30 mg/kg PO, 4 h): <1% | % BTK Remaining (BTK [2]; 30 mg/kg PO, 24 h): <1%
Structure (SMILES): CN1CCN([C@H]2CCCN(c3cnc(C(N)=O)c(Nc4ccc(C5CCN(CC6CCN(c7ccc(C(=O)NC8CCC(=O)NC8=O)nc7)CC6)CC5)cc4)n3)C2)C1=O (stereo partly drawn) [Compound 130]
